Converted amounts (≈) assume the structure as drawn. “Also recorded” adds a separate entry of the source.
What was measured:
[1] = biological target: T1, C. albicans Yck2 kinase domain (Candida albicans, UniProt A0A1D8PKB4); assay: biochemical; format: biochemical; settings: for CaYck2 IC50: two-fold dose-response up to 1 µM, ATP 20 μM (Km)
T1 sequence (A0A1D8PKB4 37-345): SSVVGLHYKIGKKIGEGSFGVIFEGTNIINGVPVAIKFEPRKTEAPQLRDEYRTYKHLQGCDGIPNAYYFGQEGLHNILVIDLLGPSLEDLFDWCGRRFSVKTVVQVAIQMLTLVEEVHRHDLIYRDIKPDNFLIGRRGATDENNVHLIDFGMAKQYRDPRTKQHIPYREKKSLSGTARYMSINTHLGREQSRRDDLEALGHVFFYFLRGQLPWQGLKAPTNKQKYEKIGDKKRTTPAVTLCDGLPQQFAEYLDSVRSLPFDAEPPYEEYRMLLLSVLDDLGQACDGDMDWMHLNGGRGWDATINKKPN

[2] = test system: C. albicans Yck2 kinase domain; assay: biochemical; format: biochemical, Candida albicans; settings: Ratio of HsCK1α IC50 / CaYck2 IC50
human CK1α = human CK1α (Homo sapiens, UniProt P48729); assay: HsCK1α kinase inhibition assay; format: biochemical
[3] = Mouse liver microsomal stability assay; settings: mouse liver microsomes; for metabolic stability category: 30 minutes, 1 μM; for remaining at 0.5 h, 1 µM: mouse
C. albicans (CaSS1) = assay: C. albicans growth inhibition, two-fold dose-response assay; settings: for MIC80: Candida albicans, 48 h, read-out: C. albicans MIC80; for whole-cell antifungal activity against C. albicans / concentration at which bioactivity was retained: 5% CO2
[4] = Plasma, kidney and brain exposure in mice; settings: 50 mg/kg oral
[5] = test system: J774A.1 cells infected with C. albicans (SC5314); assay: Macrophage killing assay; settings: for macrophage viability in co-culture: 30 µM; for IC50: Mus musculus, J774.A1, 24 h, read-out: IC50 of rescuing macrophage viability
[6] = Tolerability on repeated oral dosing in uninfected mice; settings: 25 mg/kg once daily over 3 days
[7] = test system: C. albicans (TEF1p-GFP) in J774A.1 cells; assay: Visualization of C. albicans filamentation in macrophages; settings: 4 h incubation; 0.94, 7.5 or 30 µM
[8] = Plasma pharmacokinetic profiling in mice; settings: female, CD1, mouse, in vivo, po, 25 mg/kg, maximal plasma concentration (Cmax), 25 mg/kg p.o.
[9] = test system: C. albicans (FKS1^T1922C/FKS1^T1922C Eno1-GFP); assay: HepG2 / C. albicans co-culture: fungal burden by GFP fluorescence
[10] = test system: echinocandin-resistant C. albicans strain (DPL15; FKS1^T1922C/FKS1^T1922C); assay: Caspofungin potentiation dose-response assay in echinocandin-resistant strain; settings: sub-inhibitory caspofungin (3 µg/mL); YPD, 30 °C, 48 h
HepG2-fLuc cells = assay: HepG2 / C. albicans co-culture: HepG2 survival by luminescence
[11] = test system: C. albicans (TEF1p-GFP) in co-culture with J774A.1 cells; assay: C. albicans growth in co-culture with macrophages; settings: 16 h post-infection

human CK1α, sequence (P48729 whole entry): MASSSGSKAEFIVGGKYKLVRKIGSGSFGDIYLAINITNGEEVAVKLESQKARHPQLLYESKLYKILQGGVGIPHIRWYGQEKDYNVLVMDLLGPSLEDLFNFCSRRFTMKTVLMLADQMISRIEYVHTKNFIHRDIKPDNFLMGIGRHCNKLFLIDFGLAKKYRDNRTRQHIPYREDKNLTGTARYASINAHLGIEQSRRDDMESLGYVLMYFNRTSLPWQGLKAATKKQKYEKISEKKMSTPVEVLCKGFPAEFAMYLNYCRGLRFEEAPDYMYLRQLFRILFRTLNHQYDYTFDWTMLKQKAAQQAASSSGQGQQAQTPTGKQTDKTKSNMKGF

Row | Structure (SMILES) | IC50 [1] [nM] | Fungal selectivity (fold) [2] [fold] | IC50 (human CK1α) [nM] | remaining at 0.5 h, 1 µM [3] [%] | MIC80 (C. albicans (CaSS1)) [µM] | whole-cell antifungal activity against C. albicans (C. albicans (CaSS1); RPMI, 37 °C) | further results
1 | Cc1ccn2c(-c3ccncc3)c(-c3ccc(F)cc3)nc2c1 [Compound 1a] | 630 | 2.6 | 1700 | 0 | > 100 |  | metabolic stability category [3]: unstable (compound concentration remaining in the microsomal suspension after incubation for 30 minutes was ≤ 50% of the starting concentration (1 μM))
2 | COc1ccn2c(-c3ccncc3)c(-c3ccc(F)cc3)nc2c1 [Compound 1b] | 260 | 3.9 | 1000 | 2 | 50 (≈ 16 µg/mL) | robust anti-C. albicans bioactivity | 
3 | CC(C)(C)c1ccn2c(-c3ccncc3)c(-c3ccc(F)cc3)nc2c1 [Compound 1c] | 700 | 8.6 | 6100 | 67 | > 100 |  | 
4 | CCc1ccn2c(-c3ccncc3)c(-c3ccc(F)cc3)nc2c1 [Compound 1d] | 490 | 3.5 | 1700 | 0 | 50 (≈ 15.9 µg/mL) |  | concentration at which bioactivity was retained (C. albicans (CaSS1); RPMI, 37 °C): 50 µM
5 | N#Cc1ccn2c(-c3ccncc3)c(-c3ccc(F)cc3)nc2c1 [Compound 1e] |  |  |  | 80 | 50 (≈ 15.7 µg/mL) | robust anti-C. albicans bioactivity | brain penetration [4]: accumulated in brain tissue at levels higher than the systemic circulation; macrophage viability in co-culture [5]: restoring full viability; IC50 [5]: 6680 nM; changes in animal weight or behavior [6]: no changes in animal weight or behavior were observed; filamentation of C. albicans [7]: inhibited filamentation; Cmax [8]: ~36 µM; concentration clearing the majority of co-cultured C. albicans ([9]; 48 h co-culture with HepG2): 6.25 µM; reduction in MIC80 upon addition of caspofungin [10]: ≥ 32 fold
6 | Fc1ccc(-c2nc3cc(F)ccn3c2-c2ccncc2)cc1 [Compound 1f] |  |  | 1400 | 75 | 50 (≈ 15.4 µg/mL) | robust anti-C. albicans bioactivity | macrophage viability in co-culture [5]: restoring full viability; filamentation of C. albicans [7]: inhibited filamentation; rescue of HepG2 viability (HepG2-fLuc cells; at or above 6.25 µM): partially rescued HepG2 viability; C. albicans in co-culture relative to compound-free controls ([9]; at or above 6.25 µM): ~ 50%; reduction in MIC80 upon addition of caspofungin [10]: ≥ 4 fold
7 | Fc1ccc(-c2nc3cc(C(F)(F)F)ccn3c2-c2ccncc2)cc1 [Compound 1g] | 630 | 13 | 8400 | 84 | > 100 | loss of bioactivity | 
8 | Fc1ccc(-c2nc3cc(C4CC4)ccn3c2-c2ccncc2)cc1 [Compound 1h] | 180 |  |  | 0 | 50 to 100 (≈ 16.5 to 32.9 µg/mL) |  | concentration at which bioactivity was retained (C. albicans (CaSS1); RPMI, 37 °C): 50 µM
9 | CCCc1ccn2c(-c3ccncc3)c(-c3ccc(F)cc3)nc2c1 [Compound 1i] |  |  |  | 0 | > 100 |  | 
10 | N#Cc1ccc2c(-c3ccncc3)c(-c3ccc(F)cc3)nn2c1 [Compound 2a] |  |  |  |  | 12.5 (≈ 3.93 µg/mL) | robust anti-C. albicans bioactivity | brain penetration [4]: accumulated in brain tissue at levels higher than the systemic circulation; macrophage viability in co-culture [5]: restoring full viability; IC50 [5]: 2170 nM; changes in animal weight or behavior [6]: no changes in animal weight or behavior were observed; filamentation of C. albicans [7]: inhibited filamentation; reduction of C. albicans growth in co-culture [11]: most effective; Cmax [8]: ~15 µM; C. albicans MIC80 (C. albicans (CaSS1); wild-type C. albicans, RPMI, 37 °C, 5% CO2, 48 h): 12.5 µM; reduction in MIC80 upon addition of caspofungin [10]: ≥ 32 fold
11 | Fc1ccc(-c2nn3cc(F)ccc3c2-c2ccncc2)cc1 [Compound 2b] |  |  |  |  | 25 (≈ 7.68 µg/mL) | robust anti-C. albicans bioactivity | macrophage viability in co-culture [5]: restoring full viability; filamentation of C. albicans [7]: inhibited filamentation; concentrations giving mild reduction in HepG2 viability (HepG2-fLuc cells): > 12.5 µM; reduction in MIC80 upon addition of caspofungin [10]: ≥ 32 fold
12 | Fc1ccc(-c2nn3cc(C(F)(F)F)ccc3c2-c2ccncc2)cc1 [Compound 2c] | > 1000 |  |  |  | > 100 | little to no whole-cell antifungal activity; also recorded: loss of bioactivity | CaYck2 IC50 [1]: above the maximum concentration tested
13 | COc1ccc2c(-c3ccncc3)c(-c3ccc(F)cc3)nn2c1 [Compound 2d] |  |  |  |  | 12.5 (≈ 3.99 µg/mL) | robust anti-C. albicans bioactivity | 
14 | Oc1ccc2c(-c3ccncc3)c(-c3ccc(F)cc3)nn2c1 [Compound 2e] |  |  |  |  | > 100 | no measurable whole-cell activity | 
15 | Cc1ccn2nc(-c3ccc(F)cc3)c(-c3ccncc3)c2c1 [Compound 2f] |  |  | 2000 | 1 |  |  | metabolic stability category [3]: unstable (compound concentration remaining in the microsomal suspension after incubation for 30 minutes was ≤ 50% of the starting concentration (1 μM))
16 | Fc1ccc(-c2nn3ccc(C(F)(F)F)cc3c2-c2ccncc2)cc1 [Compound 2h] | > 1000 |  | > 15000 |  |  | little to no whole-cell antifungal activity | CaYck2 IC50 [1]: above the maximum concentration tested
17 | Oc1ccn2nc(-c3ccc(F)cc3)c(-c3ccncc3)c2c1 [Compound 2k] |  |  |  |  | > 100 | no measurable whole-cell activity | 
18 | Fc1ccc(-c2nn3cccc(F)c3c2-c2ccncc2)cc1 [Compound 2m] |  | 27 |  |  | 25 (≈ 7.68 µg/mL) |  | 
19 | COc1cccn2nc(-c3ccc(F)cc3)c(-c3ccncc3)c12 [Compound 2n] | 120 | 41 | 4900 | 1 | 25 (≈ 7.98 µg/mL) |  | 
20 | N#Cc1cccn2nc(-c3ccc(F)cc3)c(-c3ccncc3)c12 [Compound 2o] | > 1000 |  | > 15000 |  |  | little to no whole-cell antifungal activity | CaYck2 IC50 [1]: above the maximum concentration tested
